This note sets out measurements from paper PMC7873978, “A Novel Lipoate-Protein Ligase, Mhp-LplJ, Is Required for Lipoic Acid Metabolism in Mycoplasma hyopneumoniae” (Frontiers in Microbiology, 2021).

Assay [1] addresses T1, Mhp-LplJ (lipoate-protein ligase, MHP_RS00640) (Mesomycoplasma hyopneumoniae, UniProt E4QSS7).
T1 construct: gene lplA; hexa-histidine-tagged Mhp-LplJ (pET22b)
T1 sequence (E4QSS7 1-336): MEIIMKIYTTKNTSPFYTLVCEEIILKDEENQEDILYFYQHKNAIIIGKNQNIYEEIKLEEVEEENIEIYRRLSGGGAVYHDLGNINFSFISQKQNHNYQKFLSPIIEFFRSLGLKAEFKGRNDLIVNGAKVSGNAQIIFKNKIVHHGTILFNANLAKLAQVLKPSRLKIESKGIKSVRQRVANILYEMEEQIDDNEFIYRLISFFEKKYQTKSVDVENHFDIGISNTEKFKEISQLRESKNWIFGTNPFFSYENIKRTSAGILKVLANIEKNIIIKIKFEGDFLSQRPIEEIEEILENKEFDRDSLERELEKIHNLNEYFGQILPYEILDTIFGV
Briefly: SPR (Biacore 8K), single-site affinity fit; also inhibits PdhD lipoylation in vitro at […]. It is filed as binding. (In general: SPR reads the build-up and loss of mass on a sensor chip optically.)

In assay [2] the target is T2, E. coli LplA (lipoate-protein ligase A) (Escherichia coli, UniProt P32099).
T2 construct: hexa-histidine-tagged E. coli LplA (pET32a)
T2 sequence (P32099 2-338): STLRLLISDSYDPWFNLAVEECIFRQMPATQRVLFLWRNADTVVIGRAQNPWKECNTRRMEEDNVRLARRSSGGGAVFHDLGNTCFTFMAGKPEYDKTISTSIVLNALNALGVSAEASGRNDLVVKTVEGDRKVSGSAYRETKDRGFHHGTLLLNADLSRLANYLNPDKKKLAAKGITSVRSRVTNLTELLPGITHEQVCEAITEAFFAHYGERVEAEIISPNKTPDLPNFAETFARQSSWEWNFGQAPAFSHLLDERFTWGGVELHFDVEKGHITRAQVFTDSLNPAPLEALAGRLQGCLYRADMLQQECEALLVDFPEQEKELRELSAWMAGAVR
Briefly: in vitro lipoate ligation to apo-PdhD, anti-lipoic acid western blot (positive control enzyme). It is filed as biochemical. In general terms: In western blotting, separated proteins are transferred to a membrane and probed.

Assay [3] deals with T1, Mhp-LplJ (lipoate-protein ligase, MHP_RS00640). Briefly: SPR (Biacore 8K, CM5, immobilized Mhp-LplJ), single-site kinetics fit. The format is binding.
Assay [4] has the same target. Briefly: in vitro octanoate ligation to apo-PdhD, gel shift assay. It is filed as biochemical.

As usually defined, the Kd is the constant that tells how readily two partners part at equilibrium. The molecule `O=C(O)CCCCCCCBr` [8-BrO, 8-bromooctanoic acid] registered a Kd in assay [1] of 29.8 ± 3.62 µM.
Consider `O=C(O)CCCC[C@@H]1CCSS1` [lipoic acid, (R)-5-(1,2-dithiolane-3-yl) pentanoic acid], for which the “in vitro lipoate ligation to apo-PdhD, anti-lipoic acid western blot (positive c)” value in assay [2] is reported as “PdhD was successfully modified by E. coli LplA in vitro in the presence of lipoic acid”. Besides, the affinity in assay [3], expressed as Kd, was 24.1 ± 1.61 µM.
Take `CCCCCCCC(=O)O` [octanoic acid]: in assay [4], the “in vitro octanoate ligation to apo-PdhD, gel shift assay” value was “Mhp-LplJ could able to catalyze the attachment of free octanoic acid to PdhD”.
